System: AP4B1-KO SH-SY5Y cells
Assay: Testing of compounds for AP-4 deficiency: ATG9A translocation in AP4B1-KO SH-SY5Y cells
Conditions: 24 h, std error in own column
Method: SH-SY5Y cell culture. […] Media changes were done every 2-3 days and drugs were administered 24 h before fixation.
Immunocytochemistry. […] SH-SY5Y cells were fixed using 4% PFA, permeabilized with 0.1% saponin in PBS and blocked in 1% BSA/0.01% saponin (blocking solution) in PBS. Primary antibody (diluted in blocking solution) was added for 1 h at room temperature. […] Plates were then gently washed three times with PBS and protected from light.
High-content imaging and automated image analysis. […] Up to 36 fields were acquired in a 6×6 format (96-well plate) using a 40×S Plan Fluor objective (NA 0.60 m, WB 3.6-2.8 mm). Image analysis was performed using a customized image analysis pipeline in MetaXpress (Molecular Devices): Briefly, cells were identified based on the presence of DAPI signal inside a TUBB3-positive cell body. […] ATG9A fluorescence intensity (F.U.) was measured in both compartments in each cell, and the ATG9A ratio was calculated by dividing the ATG9A fluorescence intensity inside the TGN by the ATG9A fluorescence intensity in the remaining cell body:
Z′-factor robust values and strictly standardized median difference (SSMD) were calculated for each plate and only plates that met the predefined quality metrics of a Z′-factor robust 0.3 and SSMD 3 were included in analyses.

EC50 (z atg9a ratio)	Structure (SMILES)
4.418	Oc1cccc2sc(N3CCc4[nH]cnc4C3)nc12 [Compound 10]
1.185	Cc1cccc2sc(N3CCc4[nH]cnc4C3)nc12 [Compound 17]
